The results in this text go back to patent US20230219939A1, “N-(1-CYANO-PYRROLIDIN-3-YL)-5-(3-(TRIFLUOROMETHYL)PHENYL)OXAZOLE-2-CARBOXAMIDE DERIVATIVES AND THE CORRESPONDING OXADIAZOLE DERIVATIVES AS USP30 INHIBITORS FOR THE TREATMENT OF MITOCHONDRIAL DYSFUNCTION” (MISSION THERAPEUTICS LIMITED, priority 2020, published 2023).

One assay has as its target T1, USP30 (Homo sapiens, UniProt Q70CQ3).
T1 construct: purchased Boston Biochem E582
T1 sequence (Q70CQ3 57-517 limits assumed): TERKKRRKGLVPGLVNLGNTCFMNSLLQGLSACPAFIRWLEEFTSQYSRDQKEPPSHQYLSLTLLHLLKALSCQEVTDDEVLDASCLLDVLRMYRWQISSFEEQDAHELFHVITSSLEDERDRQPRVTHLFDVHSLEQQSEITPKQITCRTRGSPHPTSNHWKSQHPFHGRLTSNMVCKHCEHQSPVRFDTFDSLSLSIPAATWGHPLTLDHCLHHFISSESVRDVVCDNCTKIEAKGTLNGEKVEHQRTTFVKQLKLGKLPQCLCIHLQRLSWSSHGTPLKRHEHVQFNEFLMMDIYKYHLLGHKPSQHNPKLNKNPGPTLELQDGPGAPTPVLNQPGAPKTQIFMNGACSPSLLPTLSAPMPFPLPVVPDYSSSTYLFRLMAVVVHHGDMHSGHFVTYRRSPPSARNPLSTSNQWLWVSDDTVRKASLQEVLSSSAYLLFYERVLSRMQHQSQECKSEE
In words: USP30 biochemical IC50 assay (fluorescence polarisation). Here is the method: Dilution plates were prepared at 21 times the final concentration (2100 μM for a final concentration of 100 μM) in 50% DMSO in a 96-well polypropylene V-bottom plate (Greiner #651201). A typical 8-point dilution series would be 100, 30, 10, 3, 1, 0.3, 0.1, 0.03 μM final. Reactions were performed in duplicate in black 384 well plates (small volume, Greiner 784076) in a final reaction volume of 21 μl. Either 1 μl of 50% DMSO or diluted compound was added to the plate. USP30 (Boston Biochem #E582) was diluted in reaction buffer (40 mM Tris, pH 7.5, 0.005% Tween 20, 0.5 mg/ml BSA, 5 mM beta-mercaptoethanol) to achieve a final assay concentration of 4 nM, and 10 μl of diluted USP30 was added to the compound. Enzyme and compound were incubated for 30 min at room temp. Reactions were initiated by the addition of 50 nM of TAMRA labelled peptide linked to ubiquitin via an iso-peptide bond as fluorescence polarisation substrate. Reactions were read immediately after addition of substrate and following a 2-hour incubation at room temperature. Readings were performed on a Pherastar Plus (BMG Labtech). λ Excitation 540 nm; λ Emission 590 nm.
On the technique in general: In fluorescence polarisation assays a small probe gives low polarisation when free and higher when bound to something large.

For the next assay, the target named is T2, UCHL1 (Homo sapiens, UniProt P09936).
T2 sequence (P09936 1-223): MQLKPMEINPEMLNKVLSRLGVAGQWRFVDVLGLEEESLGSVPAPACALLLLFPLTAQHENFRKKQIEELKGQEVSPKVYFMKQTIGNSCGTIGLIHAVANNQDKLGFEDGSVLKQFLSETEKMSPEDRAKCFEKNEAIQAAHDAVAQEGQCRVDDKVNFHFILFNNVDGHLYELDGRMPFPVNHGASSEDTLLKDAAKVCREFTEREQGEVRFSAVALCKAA
The assay can be described thus: UCHL1 DUB IC50. The assay is classed as biochemical.

The subject of assay [1] is USP2, USP6, USP10, USP16, USP21, USP22, USP25, USP28. The assay can be described thus: DUB selectivity panel IC50. To be noted: range over the eight DUBs; read-out: DUB IC50 (μM) USP2, USP6, USP10, USP16, USP21, USP22, USP25, USP28. The format is biochemical.
Another assay has as its target Cathepsin B (Homo sapiens, UniProt P07858). The assay can be described thus: Cathepsin B IC50. The assay is classed as biochemical.
The target in a further assay is Cathepsin L (Homo sapiens, UniProt P07711). In words: Cathepsin L IC50. To be noted: read-out: Cathepsin IC50 (μM) Cathepsin L. The assay is classed as biochemical.
Cathepsin L, sequence (P07711 114-333, species assumed): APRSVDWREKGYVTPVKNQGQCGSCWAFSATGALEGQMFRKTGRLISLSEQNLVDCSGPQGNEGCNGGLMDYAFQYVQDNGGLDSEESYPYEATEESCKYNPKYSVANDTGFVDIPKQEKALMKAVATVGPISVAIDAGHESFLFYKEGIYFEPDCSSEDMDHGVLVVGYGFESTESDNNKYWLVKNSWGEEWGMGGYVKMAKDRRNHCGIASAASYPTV
The next assay concerns the target Cathepsin V (Homo sapiens, UniProt O60911). In words: Cathepsin V IC50. The assay is classed as biochemical.
The mark [2] stands for this setting: USP30 biochemical IC50 assay, read-out: USP30 IC50.

Several values for one entry are separate records, joined by “and”; a condition that tells them apart may be missing. Identical values can stand only once. Like-named read-outs stand apart in the source and are kept apart here.

Cathepsin V, sequence (O60911 114-334, species assumed): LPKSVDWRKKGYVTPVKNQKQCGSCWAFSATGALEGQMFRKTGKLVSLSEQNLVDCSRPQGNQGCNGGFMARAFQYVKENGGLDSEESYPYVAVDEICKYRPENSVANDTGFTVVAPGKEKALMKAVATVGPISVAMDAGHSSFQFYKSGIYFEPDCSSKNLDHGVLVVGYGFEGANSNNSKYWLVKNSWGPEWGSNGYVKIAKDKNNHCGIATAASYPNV

Turning to `COC[C@@H]1C[C@@H](NC(=O)c2nnc(-c3cc(C(F)(F)F)ccc3OC3CC3)o2)CN1C#N` [Example 5, N-((3R,5S)-1-Cyano-5-(methoxymethyl)pyrrolidin-3-yl)-5-(2-cyclopropoxy-5-(trifluoromethyl)phenyl)-1,3,4-oxadiazole-2-carboxamide], the IC50 on USP30 (setting [2]) worked out at 0.041 µM.
For `COC[C@@H]1C[C@@H](NC(=O)c2nnc(-c3cc(C(F)(F)F)ccc3Cl)o2)CN1C#N` [Example 11, 5-(2-Chloro-5-(trifluoromethyl)phenyl)-N-((3R,5S)-1-cyano-5-(methoxymethyl)pyrrolidin-3-yl)-1,3,4-oxadiazole-2-carboxamide], the concentration for half-maximal inhibition (IC50) on USP30 (setting [2]) is 0.022 µM; on USP30 (read-out: DUB IC50 (μM) USP30), 0.004 to 0.033 µM; against UCHL1, above 300 µM.
On to `N#CN1C[C@H](NC(=O)c2ncc(-c3cccc(C(F)(F)F)c3)o2)C[C@H]1Cn1ccnn1` [Example 4, N-((3R,5S)-5-((1H-1,2,3-Triazol-1-yl)methyl)-1-cyanopyrrolidin-3-yl)-5-(3-(trifluoromethyl)phenyl) oxazole-2-carboxamide], for which the half-inhibitory concentration (IC50) at USP30 (setting [2]) was 0.004 µM.
For the compound `CC1CC(C(=O)Nc2ncc(-c3ccccc3)s2)CN1C#N` (stereo not drawn) [Reference Example D, reference compound], the “fold more potent against USP30 than UCHL1” value at UCHL1 is listed as 1.5 fold.
As to `COC[C@@H]1C[C@@H](NC(=O)c2nnc(-c3cc(C(F)(F)F)ccc3OC)o2)CN1C#N` [Example 10, N-((3R,5S)-1-Cyano-5-(methoxymethyl)pyrrolidin-3-yl)-5-(2-methoxy-5-(trifluoromethyl)phenyl)-1,3,4-oxadiazole-2-carboxamide], at USP30 (setting [2]), the 50% inhibitory concentration (IC50) was determined as 0.041 µM.
`C[C@@H]1C[C@@H](NC(=O)c2nnc(-c3cccc(C(F)(F)F)c3)o2)CN1C#N` [Example 7, N-((3R,5R)-1-Cyano-5-methylpyrrolidin-3-yl)-5-(3-(trifluoromethyl)phenyl)-1,3,4-oxadiazole-2-carboxamide]: the 50% inhibitory concentration (IC50) at USP30 (setting [2]) is 0.033 µM; at USP30 (read-out: DUB IC50 (μM) USP30), 0.004 to 0.033 µM; at UCHL1, above 300 µM.
On to `C[C@@H]1C[C@@H](NC(=O)c2ncc(-c3cccc(C(F)(F)F)c3)o2)CN1C#N` [Example 2, N-((3R,5R)-1-cyano-5-methylpyrrolidin-3-yl)-5-(3-(trifluoromethyl)phenyl)oxazole-2-carboxamide], for which the IC50 in assay [1] was 17.2 to 108 µM; on Cathepsin B, 79 µM; on USP30 (setting [2]) it was 0.008 µM; on USP30 (read-out: DUB IC50 (μM) USP30), 0.008 µM; at Cathepsin L, 7.9 µM; against Cathepsin V, 56 µM. For the same compound, at UCHL1, the IC50 was determined as 280 µM.
Consider `C[C@@H]1C[C@@H](NC(=O)c2nnc(-c3cc(C(F)(F)F)ccc3OC3CC3)o2)CN1C#N` [Example 6, N-((3R,5R)-1-Cyano-5-methylpyrrolidin-3-yl)-5-(2-cyclopropoxy-5-(trifluoromethyl)phenyl)-1,3,4-oxadiazole-2-carboxamide], for which the IC50 on USP30 (setting [2]) amounted to 0.073 µM.
In the case of `N#CN1CC[C@H](C(=O)Nc2ncc(-c3ccccc3)s2)C1` [C, reference compound], the “fold more potent against USP30 than UCHL1” value on UCHL1 was determined as 0.8 fold.
Consider `COC[C@@H]1C[C@@H](NC(=O)c2nnc(-c3cccc(C(F)(F)F)c3)o2)CN1C#N` [Example 8, N-((3R,5S)-1-Cyano-5-(methoxymethyl)pyrrolidin-3-yl)-5-(3-(trifluoromethyl)phenyl)-1,3,4-oxadiazole-2-carboxamide], for which the IC50 is 4.6 to 78.9 µM in assay [1]; 116 µM against Cathepsin B; 0.038 µM at USP30 (setting [2]); 0.038 µM and 0.004 to 0.033 µM at USP30 (read-out: DUB IC50 (μM) USP30); above 30 µM at Cathepsin L; above 30 µM against Cathepsin V. Also, on UCHL1, the IC50 is above 300 µM.
With `CS(=O)(=O)C[C@@H]1C[C@@H](NC(=O)c2ncc(-c3cccc(C(F)(F)F)c3)o2)CN1C#N` [Example 3, N-((3R,5S)-1-Cyano-5-((methylsulfonyl)methyl)pyrrolidin-3-yl)-5-(3-(trifluoromethyl)phenyl)-oxazole-2-carboxamide], the IC50 at USP30 (setting [2]) was 0.003 µM.

One may read the IC50 as the concentration at which inhibition is half-maximal.
